US8865701B2, “Spiropyrrolidine beta-secretase inhibitors for the treatment of alzheimer'S disease” (Merck Sharp & Dohme Corp., priority 2009, dated 2014)

These compounds were tested against BACE 1 (Homo sapiens (Human), UniProt P56817) (assay: ECL assay of beta-secretase (BACE) enzyme inhibition). Details: homogeneous end point ECL assay, biotinylated BACE substrate, soluble human enzyme, pH 6.5, rt.
Format: biochemical
Procedure: Enzyme inhibition is determined as follows.
ECL Assay: A homogeneous end point electrochemiluminescence (ECL) assay is performed using a biotinylated BACE substrate. The Km of the substrate is approximated at 50 μM. A typical reaction contains approximately 0.6 nM enzyme, 0.25 μM of the substrate, and buffer (50 mM Pipes, pH 6.5, 0.1 mg/ml BSA, 0.2% CHAPS, 15 mM EDTA and 1 mM deferoxamine) in a total reaction volume of 100 μl. The reaction proceeds for 1-2 hrs and is then stopped by the addition of 150 μL of a quench cocktail solution (25 μl M Tris-HCl, pH 8.0, 50 μl INC buffer (2% BSA, 0.2% Tween-20 and 0.05% sodium azide diluted in Phosphate buffered saline (PBS) plus 75 μL PBS), containing Streptavidin coated magnetic beads and ruthenylated antibody which specifically recognizes the C-terminal residue of the product. The samples are subjected to M-384 (Igen Inc., Gaithersburg, Md.) analysis. Under these conditions, less than 10% of substrate is processed by BACE 1. The enzyme used in these studies is soluble (transmembrane domain and cytoplasmic extension excluded) human protein produced in a baculovirus expression system. To measure the inhibitory potency for compounds, 10 concentrations of inhibitors are prepared starting from 200 μM with three fold series dilution. Solutions of the inhibitor in DMSO are included in the reaction mixture (final DMSO concentration is 10%). All experiments are conducted at rt using the standard reaction conditions described above. To determine the IC50 of the compound, a four parameter equation is used for curve fitting. The errors in reproducing the dissociation constants are typically less than two-fold.

Chain of BACE 1 (P56817 46-457): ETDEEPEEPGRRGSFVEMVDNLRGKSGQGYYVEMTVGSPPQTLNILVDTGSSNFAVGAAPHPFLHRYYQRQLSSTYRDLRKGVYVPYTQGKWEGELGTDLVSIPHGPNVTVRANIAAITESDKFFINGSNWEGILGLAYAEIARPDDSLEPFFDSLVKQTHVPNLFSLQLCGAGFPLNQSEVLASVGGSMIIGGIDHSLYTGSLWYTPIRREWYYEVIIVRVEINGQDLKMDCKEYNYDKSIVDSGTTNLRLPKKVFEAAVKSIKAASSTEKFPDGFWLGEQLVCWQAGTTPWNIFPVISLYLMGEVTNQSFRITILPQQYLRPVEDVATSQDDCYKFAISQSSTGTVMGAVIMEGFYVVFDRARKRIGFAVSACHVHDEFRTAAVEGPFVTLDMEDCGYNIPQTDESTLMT

| IC50 | SMILES |
| --- | --- |
| 2190 nM | COc1cccc2c1OCC[C@]21CNC[C@H]1C(=O)N1CC[C@@H](c2ccccc2)C[C@H]1C1CCCC(F)(F)C1 (stereo partly drawn) [Example 3, [(4R,4′S)-8-methoxy-2,3-dihydrospiro[chromene-4,3′-pyrrolidin]-4′-yl][(2S,4R)-2-(3,3-difluorocyclohexyl)-4-phenylpiperidin-1-yl]methanone] |
| 22000 nM | CC(C)[C@@H]1C[C@H](c2ccccc2)CCN1C(=O)[C@@H]1CNC[C@]12CCCc1ccccc12 [Example 7, (1R,4′S)-3,4-dihydro-2H-spiro[naphthalene-1,3′-pyrrolidin]-4′-yl[(2S,4R)-4-phenyl-2-(propan-2-yl)piperidin-1-yl]methanone] |
| 71 nM | O=C([C@@H]1CNC[C@]12CCc1ccccc12)N1CC[C@@H](c2ccccc2)C[C@H]1c1ccccc1 [Example 21, (1R,4′S)-2,3-dihydrospiro[indene-1,3′-pyrrolidin]-4′-yl[(2S,4R)-2,4-diphenylpiperidin-1-yl]methanone] |
| 24 nM | CC(C)c1cccc2c1CCC[C@]21CNC[C@H]1C(=O)N1CCC(c2ccccc2)CC1 [Example 31, (4-phenylpiperidin-1-yl)[(1R,4′S)-5-(propan-2-yl)-3,4-dihydro-2H-spiro[naphthalene-1,3′-pyrrolidin]-4′-yl]methanone] |
| 450 nM | Cc1cccc(C2CC(c3ccccc3)CCN2C(=O)[C@@H]2CNC[C@]23CCCc2nc(Cl)ccc23)c1 (stereo partly drawn) [Example 100, [(3R,4S)-2′-chloro-7′,8′-dihydro-6′H-spiro[pyrrolidine-3,5′-quinolin]-4-yl][2-(3-methylphenyl)-4-phenylpiperidin-1-yl]methanone] |

More lines, now with the values behind:

| SMILES | IC50 |
| --- | --- |
| COC(C)(C)C1CCCCN1C(=O)[C@@H]1CNC[C@@]12CCCc1ccccc12 (stereo partly drawn) [Example 10, (1S,4′S)-3,4-dihydro-2H-spiro[naphthalene-1,3′-pyrrolidin]-4′-yl[2-(2-methoxypropan-2-yl)piperidin-1-yl]methanone] | 20000 nM |
| O=C([C@@H]1CNC[C@]12CCCc1cc(Cl)ccc12)N1CCC(c2ccccc2)CC1 [Example 19, [(1R,4′S)-6-chloro-3,4-dihydro-2H-spiro[naphthalene-1,3′-pyrrolidin]-4′-yl](4-phenylpiperidin-1-yl)methanone] | 920 nM |
| O=C([C@@H]1CNC[C@]12CCc1cc(Br)ccc12)N1CCC(c2ccccc2)CC1 [Example 30, [(1R,4′S)-5-bromo-2,3-dihydrospiro[indene-1,3′-pyrrolidin]-4′-yl](4-phenylpiperidin-1-yl)methanone] | 14000 nM |
| O=C([C@@H]1CNC[C@]12CCSc1ccccc12)N1CCC(c2ccccc2)CC1 [Example 38, (3R,4S)-2′,3′-dihydrospiro[pyrrolidine-3,4′-thiochromen]-4-yl(4-phenylpiperidin-1-yl)methanone] | 12000 nM |
| CCc1ccc2c(c1)CCC[C@]21CNC[C@H]1C(=O)N1CCC(c2ccccc2)CC1 [Example 44, [(1R,4′S)-6-ethyl-3,4-dihydro-2H-spiro[naphthalene-1,3′-pyrrolidin]-4′-yl](4-phenylpiperidin-1-yl)methanone] | 19000 nM |
| O=C([C@@H]1CNC[C@]12CCCc1nc(Cl)ccc12)N1CCC2(C=Cc3ccccc32)CC1c1ccccc1 (stereo partly drawn) [Example 77, [(3R,4S)-2′-chloro-7′,8′-dihydro-6′H-spiro[pyrrolidine-3,5′-quinolin]-4-yl](2′-phenyl-1′H-spiro[indene-1,4′-piperidin]-1′-yl)methanone] | 200 nM |
